Experiments:
[1] = system: behavioral agitation in dementia; settings: some patients with dementia; cited from earlier work
[2] = system: simple and complex partial seizures and secondarily generalized seizures; settings: adjunctive therapy or monotherapy, clinical trials; cited from earlier work
[3] = system: patients with psychosis, not otherwise specified; test: retrospective chart review of open label add-on topiramate, psychosis patients; type: in vivo, human; settings: both psychosis inpatients; daily mean dose 260 mg, duration 10.7 weeks; added to existing pharmacotherapy, several on risperidone
Experimental: (§1) A retrospective analysis of patients treated in an open label manner with topiramate for dementia and/or behavioral and psychotic disturbances in dementia was performed.
(§2) The charts of 58 consecutive patients with diagnosed psychiatric disorders refractory to conventional mood stabilizers who were treated with topiramate were selected for retrospective review. Topiramate 25 mg BID was added to existing pharmacotherapy on an open label basis. It was titrated upward in 50 mg (25 mg bid) increments every seven days until improvement occurred or a total dosage of 400 mg per day was reached. Charts were retrospectively reviewed for the following data: demographic information, psychiatric diagnosis and duration of illness, general medical history, daily dose of topiramate and regimen, duration of topiramate therapy, reason for discontinuation of topiramate therapy, previous therapy, concurrent medications, adverse events and evaluation of response to topiramate.
(§3) Results were analyzed using descriptive statistics. When possible, results are expressed as means with standard deviation (SD). […] Improvement was investigator rated and included a qualitative assessment of changes in sleep, appetite, mood and concentration during therapy. Adverse events reported by the patients were recorded during therapy and assessed for their relationship to study therapy. […]

[4] = system: patients with dementia; test: retrospective chart review of open label add-on topiramate, dementia patients; type: in vivo, human; settings: all three dementia inpatients; daily mean dose 210 mg, duration 11.7 weeks; added to existing pharmacotherapy, several on risperidone
Experimental: as §1, §2, §3

[5] = system: seizures in several rodent models of epilepsy; settings: cited from earlier work
[6] = system: kindled epilepsy; settings: animal model of kindled epilepsy; cited from earlier work

Row | Structure (SMILES) | control of behavioral agitation [1] | efficacy in treating simple and complex partial seizures and secondarily generalized seizures [2] | investigator rated response (Likert scale worse / no change / minimally improved / markedly improved) [3] | investigator rated response (Likert scale worse / no change / minimally improved / markedly improved) [4] | block of seizures [5] | block of seizures [6]
1 | NC(=O)N1c2ccccc2C=Cc2ccccc21 [carbamazepine] | efficacious | – | – | – | – | –
2 | CCCC(CCC)C(=O)O [divalproex sodium] | efficacious | – | – | – | – | –
3 | CC1(C)O[C@@H]2[C@@H](CO[C@@]3(COS(N)(=O)=O)OC(C)(C)O[C@@H]23)O1 [topiramate, 2,3:4,5-bis-O-(1-methylethylidene)-β-D-fructopyranose sulfamate] | – | effective | marked or moderate improvement | marked or moderate improvement | effectively block seizures | effectively block seizures
